Reference: patent US20240325406A1, “ANTIBACTERIAL COMPOSITIONS” (Wockhardt Limited, priority 2016, published 2024)

Key:
Assay in all cases: Quantitative drug diffusion (disc) assay per CLSI, zone of inhibition
Format in all cases: cell-based
Design in all cases: key to CLSI susceptibility interpretation: (R): Resistant;; (I): Intermediate;; (S): Sensitive (Interpretation as per CLSI recommendations, 2010)
E. coli M-138 = test system: E. coli M-138
Source text: (§1) Antibacterial activity of cefepime combination with tazobactam against various bacterial strains, including those bacteria that are known to product one or more beta-lactamase, was investigated in quantitative drug diffusion assay performed as per CLSI recommendations (Clinical and Laboratory Standards Institute (CLSI), performance Standards for Antimicrobial Susceptibility Testing, 20th Informational Supplement, M 100-S20, Volume 30, No. 1, 2010).
(§2) In a typical study, overnight grown bacterial cultures after appropriate dilution were seed inoculated in the molten, cooled agar media and plates poured. Antibacterial agents containing 6 mm diameter discs were placed on the top of the agar surface. Zone of inhibition based observation was performed after 16 to 18 hours of incubation at 35±2° C. in ambient air. These assays are routinely used in determining possibility of treating a particular infection using given antibacterial agent or a composition. In general, zone inhibition values in the sensitive(S) range indicate that the strain is susceptible to that antibacterial agent or composition. It is generally assumed that the antibacterial agent or the combination under consideration would not be effective in treating the infection, if the zone inhibition values are in the resistant (R) range.

E. coli M50 = test system: E. coli M50
Source text: as §1, §2

E. coli S-112 = test system: E. coli S-112
Source text: as §1, §2

E. coli B-123 = test system: E. coli B-123
Source text: as §1, §2

E. coli B-89 = test system: E. coli B-89
Source text: as §1, §2

E. coli 7MP = test system: E. coli 7MP
Source text: as §1, §2

[1] = 6 mm discs, 16 to 18 hours at 35±2° C., tazobactam 10 mcg in the combination
[2] = interpretation of zone of inhibition

With `CO/N=C(\C(=O)N[C@@H]1C(=O)N2C(C(=O)[O-])=C(C[N+]3(C)CCCC3)CS[C@H]12)c1csc(N)n1` [Cefepime, cefepime] the “Zone of Inhibition” value (E. coli M-138; [1]) was “Nil”, the CLSI susceptibility interpretation (E. coli M-138; [2]) was “R” and the “Zone of Inhibition” value (E. coli M50; [1]) was 7.5 mm. The CLSI susceptibility interpretation (E. coli M50; [2]) was “R”, the “Zone of Inhibition” value (E. coli S-112; [1]) was 17 mm and the CLSI susceptibility interpretation (E. coli S-112; [2]) was “I”. The “Zone of Inhibition” value (E. coli B-123; [1]) was 8 mm, the CLSI susceptibility interpretation (E. coli B-123; [2]) was “R” and the “Zone of Inhibition” value (E. coli B-89; [1]) was 8 mm. The CLSI susceptibility interpretation (E. coli B-89; [2]) was “R”, the “Zone of Inhibition” value (E. coli 7MP; [1]) was 16 mm and the CLSI susceptibility interpretation (E. coli 7MP; [2]) was “I”.
